Measurements taken from patent US20040157772A1, “Use of a gatran for the manufacture of a medicament of the treatment of pulmonary fibrosis” (priority 2001, published 2004).

How the values were obtained:
[1] = Concentration of inogatran in plasma on day 6; format: in vivo; conditions: Sprague-Dawley, rat, iv, rats, constant i.v. infusion 5 μmol/kg/h from Alzet pumps, day 6 after implantation, approximately
Experimental: (§1) Group 4—12 rats—received bleomycin induction as above, plus a constant i.v. infusion of inogatran (5 μmol/kg/h) loaded in Alzet® 2ML2 pumps at a concentration of 200 μmol/mL (88 mg/mL) in 0.9% NaCl (only 8 animals were ultimately used, the other 4 were used for different purposes).
Plasma and bronchiolar lavage fluid (BAL) were collected from four rats in groups 3 and 4, and from two rats in group 1, six days after induction, for quantification of plasma concentration of compound and thrombin activity in BAL.
Concentration of inogatran in plasma on day 6.

[2] = test system: bleomycin-induced lung fibrosis; experiment: Bleomycin-induced lung fibrosis model in rats, inogatran by constant i.v. infusion; format: in vivo, Sprague Dawley rats
Experimental: Forty male Sprague Dawley rats weighing 200 g were kept in cages (2 rats/cage) covered with filter tops to prevent spreading of carcinogenic metabolites of bleomycin. The rats had free access to food and water.
The rats were split into four groups:
Group 1—8 rats—received 0.9% NaCl (1 mL/kg) as a control (only 6 animals were ultimately used, the other 2 were used for different purposes).
Group 2—8 rats—received induction by way of an i.t. 2.5 mg/kg (1 mL/kg) bleomycin instillation (a 15 IE injection solution (Lundbeck)).
Group 3—12 rats—received bleomycin induction as above, plus a constant i.v. infusion of 0.9% NaCl solution (5.0 μL/h) (only 8 animals were ultimately used, the other 4 were used for different purposes).
as §1
The rats were anaesthetised by way of an i.p. injection (2 mL/kg) of Ketalar™ (50 mg/mL ketamin; Parke-Davis)/Rompun.vet™ (20 mg/mL xylazin; Bayer) (1.75 mL/0.35 mL). A pre-filled minipump connected to a PE60 catheter was inserted into the jugularis vein. A s.c. pocket was created on the back of the animal. The pump was led into this pocket. The incision on the neck was closed with wound clips.
The pre-filled pump with catheter was incubated in 37° C. 0.9% NaCl overnight before implantation to enable immediate pumping after surgery. This was to avoid clotting in the catheter.
After 14 days, all rats received an overdose of pentobarbital (i.p.). The rats were weighed and the lung was dissected and weighed. One lobe was placed in Histofix™ (buffered 5% formaldehyde solution) for histological examination. […]
The following parameters were measured: […]
Total collagen (quantification of hydroxyproline according to the procedure described in Stegemann-Stadler et al, Determinations of Hydroxyproline, Clin. Chim. Acta (1967) 18, 267-273).

- concentration at 6 day [1]: 2 to 7 µM
Structure (SMILES): N=C(N)NCCCNC(=O)[C@@H]1CCCCN1C(=O)[C@@H](CC1CCCCC1)NCC(=O)O [inogatran, HOOC—CH2-(R)Cha-Pic-Nag-H]
- hydroxyproline content in the lungs (total collagen) ([2]; bleomycin i.t. 2.5 mg/kg, constant i.v. infusion 5 μmol/kg/h, day 14, vehicle control 2.34±0.14, P=0.0008): 1.37±0.10 μg/mg tissue
- inhibition of collagen deposition ([2]; bleomycin-induced rats, constant i.v. infusion, day 14): almost complete inhibition
- effect on total lung weight (wet-weight) ([2]; bleomycin-induced rats, inogatran 4-5 μmol/kg/hr): no effect
